{"source": "patent US20060247421A1", "about": "“Liver x receptor alpha splicing mutant protein, gene thereof and utilization of the same” (priority 2003, published 2006)", "tested_on": "liver X receptor α splicing mutant proteins (D5, 5A and 6A)", "assay": "Reporter assay in a transient expression system in HEK293 cells (TATA-LXREx4-luciferase), ligand-dependent transcription activating ability", "type": "cell-based, human", "conditions": "three kinds of liver X receptor α splicing mutant proteins", "procedure": "FIG. 5 is a view showing the results of assessment of the function of liver X receptor α splicing mutant proteins (D5, 5A and 6A) by a reporter assay in a transient expression system in HEK293 cells. […] A non-treated section is represented by white, a 1 μg/ml 22R-hydroxycholesterol-treated section is represented by black, and a 1 μg/ml 25-hydroxycholesterol-treated section is represented by gray. In addition, in each test section, 1 μM 9-cis retinoic acid is contained. Letting a value of luciferase activity in a control section (control) in which only a solvent was added to be 100%, a value of luciferase activity in each test section is shown as a relative value. WT means a normal liver X receptor α.\nA human fetal kidney-derived HEK293 cell strain (ATCC; CRL-1573) was subcultured in a Dulbecco modified Eagle medium (DMEM) containing 10% bovine fetal serum (FBS) from which low-molecular substances had been removed with charcoal dextran, and penicillin (100 unit/ml) and streptomycin ([…]) as an antibiotic, and not containing phenol red at 37° C. under the presence of 5% CO2. The subcultured HEK293 cell strain was seeded on a 10 cm cell culturing dish to about 2×10^6 cells. […]", "data": [{"compound": "CC(C)CC[C@@H](O)[C@@H](C)[C@H]1CC[C@H]2[C@@H]3CC=C4C[C@@H](O)CC[C@]4(C)[C@H]3CC[C@]12C", "note": "[22R-oxycholesterol]", "values": [{"measurement": "transcription activating ability depending on ligand, as compared with that of a normal liver X receptor α", "value": "extremely weak or not recognized level"}]}]}
